Experimental data published in patent US11999747B2, “Furoquinolinediones as inhibitors of TDP2” (THE UNITED STATES OF AMERICA, AS REPRESENTED BY THE …, priority 2015, dated 2024).

Columns and labels:
human TDP2 (hTDP2) = molecular target: T1, human TDP2 (hTDP2) (Homo sapiens, UniProt O95551); experiment: Whole cell extract Tdp2 assay (DT40 TDP1-/- cells complemented with human TDP2); assay type: biochemical; settings: whole cell extract 4 μg/mL of DT40 cells expressing hTDP2, 15 min, room temperature; read-out: WCE hTDP2
T1 construct: expressed in transfected cells; host or cells: DT40 (chicken) TDP1-/- knockout cells complemented with human TDP2; whole cell extract
T1 sequence (O95551 1-362): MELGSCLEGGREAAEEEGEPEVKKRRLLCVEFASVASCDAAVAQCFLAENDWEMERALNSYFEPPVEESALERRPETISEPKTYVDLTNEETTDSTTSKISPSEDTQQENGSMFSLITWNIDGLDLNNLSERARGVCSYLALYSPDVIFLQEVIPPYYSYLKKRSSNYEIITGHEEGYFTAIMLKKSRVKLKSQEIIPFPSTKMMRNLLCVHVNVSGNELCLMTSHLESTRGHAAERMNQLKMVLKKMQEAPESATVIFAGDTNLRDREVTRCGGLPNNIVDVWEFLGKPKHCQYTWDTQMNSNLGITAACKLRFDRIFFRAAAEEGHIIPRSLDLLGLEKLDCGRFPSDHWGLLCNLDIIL
Description: DT40 knockout cells (1×10^7) for Tdp1 (TDP1−/−) complemented with human TDP2 (hTDP2) were collected, washed, and centrifuged. Cell pellets were then lysed and stored similarly to hTDP1 extracts (see above). The 18-mer single-stranded oligonucleotide was incubated at 1 nM with 4 μg/mL of whole cell extracts in the absence or presence of inhibitor for 15 min at room temperature in the WCE buffer containing 50 mM Tris HCl, pH 7.5, 80 mM KCl, 5 mM MgCl2, 2 mM EDTA, 1 mM DTT, 40 μg/mL BSA, and 0.01% Tween-20. Reactions were terminated by the addition of 1 volume of gel loading buffer [99.5% (v/v) formamide, 5 mM EDTA, 0.01% (w/v) xylene cyanol, and 0.01% (w/v) bromophenol blue]. Samples were then treated and run similarly to the hTDP1 whole cell extract (Example 51).
(§1) All compounds were prepared by the methods shown in Examples 1 to 50. Routine changes in starting materials and reaction conditions, readily apparent to those of skill in the art, were used to make the particular compounds disclosed in Table 1. […] A standard Tdp2 inhibition assay, such as the assay of Example 53, is used to determine the IC50's for the compounds. LC methods are given in the General Methods section.

recombinant human TDP2 = molecular target: T2, recombinant human TDP2 (Homo sapiens, UniProt O95551); experiment: Recombinant Tdp2 assay (gel-based, 18-mer ssDNA substrate); assay type: biochemical; settings: recombinant human TDP2, 25 pM, 15 min, room temperature; read-out: REC TDP2
T2 sequence (O95551 1-362): T1 sequence (O95551 1-362)
Description: TDP2 reactions were carried out as described previously (Example 52) with the following modifications. The 18-mer single-stranded oligonucleotide DNA substrate (α^32P-cordycepin-3′-labeled) was incubated at 1 nM with 25 pM recombinant human TDP2 in the absence or presence of inhibitor for 15 min at room temperature in a buffer containing 50 mM Tris-HCl, pH 7.5, 80 mM KCl, 5 mM MgCl2, 0.1 mM EDTA, 1 mM DTT, 40 μg/mL BSA, and 0.01% Tween 20. Reactions were terminated and treated similarly to WCE and recombinant TDP1 reactions (see Examples 52 and 53).
as §1

| SMILES | IC50 (human TDP2 (hTDP2)) | IC50 (recombinant human TDP2) |
| --- | --- | --- |
| C#Cc1cccc(OC(=O)c2c(C)oc3c2C(=O)c2ncccc2C3=O)c1 [Compound 32] | 12 to 37 µM | 37 to 111 µM |
| Cc1oc2c(c1C(=O)OCCO)C(=O)c1ncccc1C2=O [Compound 10, 2-hydroxyethyl-2-methyl-4,9-dioxo-4,9-dihydrofuro[2,3-g]quinoline-3-carboxylate] | 1 to 12 µM | 12 to 37 µM |
| COP(=O)(CCOC(=O)c1c(C)oc2c1C(=O)c1ncccc1C2=O)OC [Compound 22] | 12 to 37 µM | 1 to 12 µM |
| Cc1oc2c(c1C(=O)Oc1cccc(-c3cn(CCC(=O)O)nn3)c1)C(=O)c1ncccc1C2=O [Compound 33] | 12 to 37 µM | 12 to 37 µM |
| Cc1oc2c(c1C(=O)OCCCCO)C(=O)c1ncccc1C2=O [Compound 35] | 1 to 12 µM | 12 to 37 µM |
| Cc1oc2c(c1C(=O)Oc1ccccc1Cl)C(=O)c1ncccc1C2=O [Compound 24] | 12 to 37 µM | 1 to 12 µM |
| COC(=O)c1sccc1OC(=O)c1c(C)oc2c1C(=O)c1ncccc1C2=O [Compound 62] | 1 to 12 µM | 12 to 37 µM |
| CC(=O)c1c(C)oc2c1C(=O)c1ncccc1C2=O [Compound 9, 3-acetyl-2-methylfuro[2,3-g]quinoline-4,9-dione] | 37 to 111 µM | 37 to 111 µM |
| Cc1oc2c(c1C(=O)Oc1cccc(-c3cn(CCCO)nn3)c1)C(=O)c1ncccc1C2=O [Compound 34] | 1 to 12 µM | 1 to 12 µM |
| Cc1oc2c(c1C(=O)OCCOCCO)C(=O)c1ncccc1C2=O [Compound 36] | 12 to 37 µM | 12 to 37 µM |
| Cc1oc2c(c1C(=O)OCCc1ccccc1)C(=O)c1ncccc1C2=O [Compound 40] | 12 to 37 µM | 37 to 111 µM |
| Cc1oc2c(c1C(=O)Oc1ccc(Cl)cc1)C(=O)c1ncccc1C2=O [Compound 27] | 1 to 12 µM | 1 to 12 µM |
| O=C(Oc1ccc(OCCCN2CCOCC2)cc1)c1coc2c1C(=O)c1ncccc1C2=O [Compound 59] | 1 to 12 µM | 37 to 111 µM |
| Cc1oc2c(c1C(=O)OCCCO)C(=O)c1ncccc1C2=O [Compound 11] | 1 to 12 µM | 12 to 37 µM |
| CC(=O)N1CCN(c2ccc(OC(=O)c3c(C)oc4c3C(=O)c3ncccc3C4=O)cc2)CC1 [Compound 61] | 1 to 12 µM | 37 to 111 µM |
| Cc1oc2c(c1C(=O)Oc1ccccc1OCCCN1CCOCC1)C(=O)c1ncccc1C2=O [Compound 60] | 1 to 12 µM | 37 to 111 µM |
| COC(=O)c1c(C)oc2c1C(=O)c1ncccc1C2=O [Compound 41] | 1 to 12 µM | 12 to 37 µM |
| Cc1oc2c(c1C(=O)OC[C@H]1COC(C)(C)O1)C(=O)c1ncccc1C2=O [Compound 38] | 1 to 12 µM | 1 to 12 µM |
| Cc1oc2c(c1C(=O)Oc1cccc(O)c1)C(=O)c1ncccc1C2=O [Compound 12] | 1 to 12 µM | 12 to 37 µM |
| CCOC(=O)c1c(C)oc2c1C(=O)c1cccnc1C2=O [Compound 1, Ethyl 2-methyl-4,9-dioxo-4,9-dihydrofuro[3,2-g]quinoline-3-carboxylate] | 37 to 111 µM | 37 to 111 µM |
| Cc1oc2c(c1C(=O)Oc1cccnc1)C(=O)c1ncccc1C2=O [Compound 28] | 1 to 12 µM | 1 to 12 µM |
| Cc1oc2c(c1C(=O)Oc1cccc(Cl)c1)C(=O)c1ncccc1C2=O [Compound 23] | 1 to 12 µM | 12 to 37 µM |
| CCOC(=O)c1c(CBr)oc2c1C(=O)c1ncccc1C2=O [Compound 63] | 1 to 12 µM | 12 to 37 µM |
| Cc1oc2c(c1C(=O)Oc1cccc(C#N)c1)C(=O)c1ncccc1C2=O [Compound 26] | 1 to 12 µM | 1 to 12 µM |
| Cc1oc2c(c1C(=O)O)C(=O)c1ncccc1C2=O [Compound 7, 2-methyl-4,9-dioxo-4,9-dihydrofuro[2,3-g]quinoline-3-carboxylic acid] | 37 to 111 µM | 37 to 111 µM |
| CCOC(=O)c1c(-c2ccccc2)oc2c1C(=O)c1ncccc1C2=O [Compound 30, Ethyl 4,9-dioxo-2-phenyl-4,9-dihydrofuro[2,3-g]quinoline-3-carboxylate] | 12 to 37 µM | 12 to 37 µM |
| Cc1oc2c(c1C(=O)Oc1ccccc1O)C(=O)c1ncccc1C2=O [Compound 13] | 1 to 12 µM | 12 to 37 µM |
| Cc1oc2c(c1C(=O)OC[C@@H](O)CO)C(=O)c1ncccc1C2=O [Compound 37] | 12 to 37 µM | 1 to 12 µM |
